Measurements from patent US9084793B2, “Methods for treating Alzheimer's disease by administering certain synthetic compounds” (BEIJING JOEKAI BIOTECHNOLOGY LLC, priority 2011, dated 2015).
“Also recorded” adds a separate entry of the source.

Tests used:
[1] = target: T1, human EGFR expressed in COS-7 cells (Homo sapiens, UniProt P00533); experiment: Oligomeric Aβ42-induced phosphorylation of EGFR in COS-7 cells transfected with EGFRwt plasmid (Western blot); assay type: cell-based; details: 10 μg/ml oligomeric Aβ42, COS-7 cells transfected with EGFRwt plasmid
T1 construct: expressed in transfected cells; host or cells: COS-7
Method: (§1) COS-7 cells were cultured in normal Dulbecco's Modified Eagle Medium (D-MEM) containing 10% fetal bovine serum (Invitrogen) at 37° C. in 5% CO2. Transfection of the cells with an EGFR^WT plasmid was performed following the Lipofectamine 2000 manuals (Invitrogen). After 48 h, cells were washed with fresh medium once and incubated with 10 or 25 μg/ml Aβ42 oligomers for 15 min at 37° C. in 5% CO2. 0.5 μg/ml human EGF (Sigma) was used as a positive control. Cells were then washed with PBS for 3 times and collected.
The preparation procedure was described previously (Dahlgren K, et al., J Biol Chem. 277:32046-53, 2002). Synthetic and recombinant wild type Aβ42 (AnaSpec, Inc.) was initially dissolved to 1 mM in hexafluoroisopropanol (Sigma).
Hexafluoroisopropanol was removed under vacuum in a Speed Vac, and the peptide film was stored at −20° C. For oligomer preparation, the peptide was first resuspended in DMSO to a concentration of 12.5 mg/ml and then diluted with DMEM/F-12 (phenol red-free, Invitrogen) to a final concentration of 500 μg/ml and incubated at 4° C. for 24 h.
(§2) Whole fly head or cells lysates were prepared using a RIPA buffer containing 0.3% SDS, 50 mM Tris-HCl, pH 7.4, 0.5% NP-40, 1% sodium deoxycholate, 150 mM NaCl, 5 mM EDTA, 1 tablet per 50 ml complete protease inhibitor cocktail (Roche Diagnostics). Lysates were diluted in an SDS sample buffer and separated on 10-20% Tris-Tricine gels (Invitrogen), and transferred to nitrocellulose membranes (Invitrogen). The membranes were boiled in PBS for 3 min, blocked with 5% non-fat dry milk and blotted with a first antibody. First antibodies used included mouse anti-Aβ42 (6E10, Covance Research Products), mouse anti-dEGFR (Abcam), rabbit anti-hEGFR (Cell Signaling), mouse anti-hEGFR-p (Cell Signaling) and rabbit anti-Actin (Sigma). Data were analyzed with the ImageJ software (National Institutes of Health).
Behavioral screening was performed with 2000 synthetic compounds (purchased from TimTec LLC, USA) with structures that are presumably targeted to protein kinase activities (FIG. 1A). […]

[2] = target: T1, human EGFR expressed in COS-7 cells; experiment: Normal p-EGFR level in EGFRwt-expressing COS-7 cells without oligomeric Aβ42 (Western blot); assay type: cell-based; details: 100 μg/ml compound, EGFRwt-expressing COS-7 cells without oligomeric Aβ42 peptides
Method: FIG. 2. […] 100 μg/ml JKF-006, JKF-011 and JKF-027 were used to treat EGFR^wt-expressing COS-7 cells without oligomeric Aβ42 peptides. […] N=3-4.
as §1, §2

Aβ42 transgenic flies = experiment: Pavlovian olfactory associative immediate memory in Aβ42 transgenic flies; assay type: in vivo, Drosophila; details: Aβ42 transgenic male flies, 7-day drug feeding, 50 μg/ml, tested day 10 after eclosion
Method: Behavioral screening was performed with 2000 synthetic compounds (purchased from TimTec LLC, USA) with structures that are presumably targeted to protein kinase activities (FIG. 1A). Only male flies were selected for 7-day drug treatment and then subjected to behavioral assay at day 10 after eclosion. […] Among them, 9 were tested in double transgenic mice and compounds were indicated to have positive results after 2 months of treatment (6- to 8-month-old) (FIG. 1A-G).

[3] = system: double transgenic mice (APPswe.PSEN1dE9); experiment: Morris water maze in double transgenic AD-model mice; assay type: in vivo, mouse; details: two-month treatment (6- to 8-month-old), lavage once daily

## 2-Propenamide, 2-cyano-N-[2-(1H- indol-3-yl)ethyl]-3-[5- (4-morpholinyl)-2- furanyl]- [JKF-027]
[1]
  Effect on oligomeric Aβ42-induced increase of p-EGFR activity: capable of inhibiting induced p-EGFR activity; also recorded: significantly inhibit
[2]
  Effect on normal (endogenous) p-EGFR level: None of the compounds changed the p-EGFR level; also recorded: incapable of affecting the endogenous p-EGFR level
Aβ42 transgenic flies
  Rescue/prevention of Aβ42-induced memory loss (performance index): effective in rescuing memory loss
[3]; 55 mg/kg/day
  Rescue of Aβ-induced memory loss (Morris water maze): Rescue of Aβ-induced memory loss; also recorded: effective results in rescuing the memory loss

## N#C/C(=C/c1ccc(-c2cc(C(=O)O)ccc2Cl)o1)C(=O)Nc1ccc(F)cc1 [JKF-006, Benzoic acid, 4-chloro-3-[5-[2-cyano-3-[(4-fluorophenyl)amino]-3-oxo-1-propen-1-yl]-2-furanyl]-]
[1]
  Effect on oligomeric Aβ42-induced increase of p-EGFR activity: capable of inhibiting induced p-EGFR activity; also recorded: significantly inhibit
[2]
  Effect on normal (endogenous) p-EGFR level: None of the compounds changed the p-EGFR level; also recorded: incapable of affecting the endogenous p-EGFR level
Aβ42 transgenic flies
  Rescue/prevention of Aβ42-induced memory loss (performance index): effective in rescuing memory loss
[3]; 58 mg/kg/day
  Rescue of Aβ-induced memory loss (Morris water maze): Rescue of Aβ-induced memory loss; also recorded: effective results in rescuing the memory loss

## O=C1CNCCN1 [JKF-011, Piperazin-2-one]
[1]
  Effect on oligomeric Aβ42-induced increase of p-EGFR activity: capable of inhibiting induced p-EGFR activity; also recorded: significantly inhibit
[2]
  Effect on normal (endogenous) p-EGFR level: None of the compounds changed the p-EGFR level; also recorded: incapable of affecting the endogenous p-EGFR level
Aβ42 transgenic flies
  Rescue/prevention of Aβ42-induced memory loss (performance index): effective in rescuing memory loss
[3]; 14 mg/kg/day
  Rescue of Aβ-induced memory loss (Morris water maze): Rescue of Aβ-induced memory loss; also recorded: effective results in rescuing the memory loss
